{"source": "ChEMBL document CHEMBL4428063", "about": "“Novel Pyrimidine Toll-like Receptor 7 and 8 Dual Agonists to Treat Hepatitis B Virus” (J Med Chem, 2016)", "key": {"[1]": {"test": "Oral bioavailability in cynomolgus monkey at 9 mg/kg, measured after 24 hrs", "assay_type": "ADME, organism-based, Macaca fascicularis", "settings": "in vivo"}, "[2]": {"test": "Tmax in cynomolgus monkey plasma at 30 mg/kg, administered through oral gavage measured after 24 hrs", "assay_type": "ADME, organism-based, Macaca fascicularis"}, "[3]": {"test": "Oral bioavailability in cynomolgus monkey at 3 mg/kg, measured after 24 hrs", "assay_type": "ADME, organism-based, Macaca fascicularis", "settings": "in vivo"}, "[4]": {"test": "Intrinsic clearance in Sprague-Dawley rat hepatocytes at 1 uM measured after 120 mins", "assay_type": "ADME, cell-based, Hepatocyte", "settings": "2 h"}, "[5]": {"test": "Intrinsic clearance in dog liver microsomes assessed per mg protein at 1 uM measured after 60 mins", "assay_type": "ADME, Canis lupus familiaris, Microsome", "settings": "read-out: CLH"}, "[6]": {"biological_target": "Toll-like receptor 2 (Homo sapiens) (UniProt O60603)", "sequence (O60603 whole entry)": "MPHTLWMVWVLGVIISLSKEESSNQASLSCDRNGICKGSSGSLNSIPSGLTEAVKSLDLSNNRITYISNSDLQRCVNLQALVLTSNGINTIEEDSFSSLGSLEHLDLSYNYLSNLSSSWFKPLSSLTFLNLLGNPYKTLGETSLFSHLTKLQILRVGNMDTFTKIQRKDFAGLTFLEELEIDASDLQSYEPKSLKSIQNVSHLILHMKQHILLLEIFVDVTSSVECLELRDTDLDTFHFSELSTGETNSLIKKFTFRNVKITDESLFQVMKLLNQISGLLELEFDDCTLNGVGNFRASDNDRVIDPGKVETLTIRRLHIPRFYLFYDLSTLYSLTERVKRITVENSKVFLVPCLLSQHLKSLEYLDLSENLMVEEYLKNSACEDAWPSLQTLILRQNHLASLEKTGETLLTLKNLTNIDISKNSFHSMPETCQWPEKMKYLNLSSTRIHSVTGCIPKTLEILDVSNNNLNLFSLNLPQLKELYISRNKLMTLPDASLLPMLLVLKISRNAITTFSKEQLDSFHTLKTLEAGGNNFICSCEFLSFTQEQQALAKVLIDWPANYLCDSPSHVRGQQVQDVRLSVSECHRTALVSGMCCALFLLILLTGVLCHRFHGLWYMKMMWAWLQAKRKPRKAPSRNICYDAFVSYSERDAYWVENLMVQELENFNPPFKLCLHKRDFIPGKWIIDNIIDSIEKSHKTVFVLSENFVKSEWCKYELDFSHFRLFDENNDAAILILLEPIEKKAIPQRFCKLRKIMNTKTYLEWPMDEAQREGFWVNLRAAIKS", "test": "Agonist activity at wild-type human TLR2 expressed in HEK293 cells up to 25 uM measured after 6 hrs by NF-kappaB luciferase reporter gene assay", "assay_type": "cell-based"}, "[7]": {"test": "Intrinsic clearance in dog hepatocytes at 1 uM measured after 120 mins", "assay_type": "ADME, cell-based, Canis lupus familiaris, Hepatocyte", "settings": "2 h"}, "[8]": {"test": "Intrinsic clearance in cynomolgus monkey liver microsomes assessed per mg protein at 1 uM measured after 60 mins", "assay_type": "ADME, Macaca fascicularis, Microsome", "settings": "read-out: CLH"}, "[9]": {"biological_target": "T1, Toll-like receptor 9 (Homo sapiens) (UniProt Q9NR96)", "T1 sequence (whole entry)": "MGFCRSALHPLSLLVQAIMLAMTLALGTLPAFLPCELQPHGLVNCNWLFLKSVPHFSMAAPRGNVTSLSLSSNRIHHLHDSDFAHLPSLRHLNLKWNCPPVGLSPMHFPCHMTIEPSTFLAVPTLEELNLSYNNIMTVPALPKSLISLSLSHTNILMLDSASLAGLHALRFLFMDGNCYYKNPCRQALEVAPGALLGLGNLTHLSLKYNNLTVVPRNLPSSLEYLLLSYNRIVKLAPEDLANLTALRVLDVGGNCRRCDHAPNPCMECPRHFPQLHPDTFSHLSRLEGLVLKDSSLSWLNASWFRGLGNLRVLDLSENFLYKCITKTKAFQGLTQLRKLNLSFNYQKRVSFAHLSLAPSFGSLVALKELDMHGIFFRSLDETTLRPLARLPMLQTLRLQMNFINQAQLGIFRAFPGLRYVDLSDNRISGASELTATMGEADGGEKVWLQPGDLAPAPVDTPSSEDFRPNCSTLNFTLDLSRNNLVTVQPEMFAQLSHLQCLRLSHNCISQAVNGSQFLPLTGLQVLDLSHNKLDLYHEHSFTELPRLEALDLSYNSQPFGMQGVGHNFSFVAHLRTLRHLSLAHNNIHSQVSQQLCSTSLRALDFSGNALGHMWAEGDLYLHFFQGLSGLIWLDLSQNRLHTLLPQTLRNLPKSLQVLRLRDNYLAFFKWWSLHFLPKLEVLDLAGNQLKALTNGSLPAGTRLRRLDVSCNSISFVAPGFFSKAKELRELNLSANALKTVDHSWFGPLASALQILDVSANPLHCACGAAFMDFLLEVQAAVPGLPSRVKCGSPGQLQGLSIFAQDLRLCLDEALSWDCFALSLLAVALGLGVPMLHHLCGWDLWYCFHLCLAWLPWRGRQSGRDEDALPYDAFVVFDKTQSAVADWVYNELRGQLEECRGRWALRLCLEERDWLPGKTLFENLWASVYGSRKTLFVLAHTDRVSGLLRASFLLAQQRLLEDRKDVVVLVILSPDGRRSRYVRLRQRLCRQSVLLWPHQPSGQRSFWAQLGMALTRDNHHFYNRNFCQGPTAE", "test": "Agonist activity at wild-type human TLR9 expressed in HEK293 cells up to 25 uM measured after 6 hrs by NF-kappaB luciferase reporter gene assay", "assay_type": "cell-based"}, "[10]": {"test": "Intrinsic clearance in human hepatocytes at 1 uM measured after 120 mins", "assay_type": "ADME, cell-based, Hepatocyte", "settings": "2 h"}, "[11]": {"test": "Tmax in Sprague-Dawley rat liver at 10 mg/kg, po", "assay_type": "ADME, organism-based"}}, "note": "Active and inactive are the calls of the source. The rule behind the calls is not given here."}
{"smiles": "CCCC[C@@H](CCO)Nc1nc(N)ncc1OC", "values": [{"measurement": "bioavailability", "setting": "[1]", "result": 1.5, "unit": "%"}, {"measurement": "Tmax", "setting": "[2]", "result": "60 to 120", "unit": "min"}, {"measurement": "bioavailability", "setting": "[3]", "result": 0.8, "unit": "%"}, {"measurement": "CLH", "setting": "[4]", "result": 68, "unit": "µL/min"}, {"measurement": "microsomal CLint at 1 µM", "setting": "[5]", "result": 7, "unit": "µL/min/mg"}, {"measurement": "Activity", "setting": "[6]", "result": "inactive"}, {"measurement": "CLH", "setting": "[7]", "result": 99, "unit": "µL/min"}, {"measurement": "microsomal CLint at 1 µM", "setting": "[8]", "result": 8, "unit": "µL/min/mg"}, {"measurement": "Activity", "setting": "[9]", "result": "inactive"}, {"measurement": "CLH", "setting": "[10]", "result": 18, "unit": "µL/min"}, {"measurement": "Tmax", "setting": "[11]", "result": 30, "unit": "min"}]}
